Data taken from patent US20200085839A1, “COMBINATION OF IMMUNOTHERAPEUTICS AND BISFLUOROALKYL-1,4-BENZODIAZEPINONE COMPOUNDS FOR TREATING LYMPHOMAS” (Ayala Pharmaceuticals Inc., priority 2018, published 2020).
“Also recorded” adds a separate entry of the source.

Key:
Format in all cases: cell-based, human
[1] = test system: U266 cells (MM cell line); assay: Cell-bound BCMA by flow cytometry; details: 24 h; for cell-bound BCMA levels: FIG. 1; for effectiveness at increasing cell-bound BCMA compared with other GSIs: all doses above 0.3 nM
Experimental: FIG. 1. Levels of cell-bound BCMA en multiple myelma (MM) cells Incubated with γ-secretase inhibitors (GSIs). U266 cells (MM cell line) were incubated with 0.3 nM, 0.5 nM, 1 nM or 3 nM of GSI (Compound 1, Compound 22, LY3039478 or PF3084014) for 24 hours, and BCMA levels were measured by flow cytometry.
(§1) For detecting levels of soluble and cell-bound BCMA, U266 cells (MM cell line) were seeded at 1×10^5 cells/well in a total volume of 250 μl into a 96-well plate. The cells were cultured in RPMI medium supplemented with 10% FCS. GSIs (Compound 1, Compound 22, LY3039478 (Lilly), and PF3084014 (Pfizer)) were added to U266 cell cultures at a concentration of 0.3 nM, 0.5 nM, 1 nM and 3 nM for soluble BCMA and at a concentration of […]. Following 24 hours of incubation at 37° C., the cells were collected, and BCMA levels were evaluated in both the cells (cell-bound BCMA) and the cell media (soluble BCMA). Cells were stained with an anti-BCMA antibody (PE anti-human CD269 BCMA, Biolegend). Soluble BCMA levels were analyzed by ELISA (Human BCMA/TNFRSF17 DuoSet kit: R&D Systems).

[2] = test system: SP49, Toledo, RC, SUDHL-4 and SUDHL-6 lymphoma cell lines; assay: Cell surface BCMA by FACS, five lymphoma cell lines; details: SUDHL-4, SUDHL-6, 10 nM or more, 24 h
Experimental: (§2) Cells were seeded at 1×10^4 cells/well in a total volume of 250 μl into a 96-well plate. The cells were cultured in RPMI supplemented with 10% FCS.
(§3) The tested compounds (Compound 1 and Compound 22) were added to the cell cultures at concentrations of: 0, 10, 1, 0.5, 0.1, 0.01, 0.001 μM ([…], 10 nM, 100 nM, 500 nM, 1000 nM, and 10000 nM). Following 24 hours of incubation at 37° C., the cells were collected and stained with anti-BCMA antibody and immediately analyzed by FACS.
The effect of γ-secretase inhibitors on cell surface BCMA levels in lymphoma cell lines was observed using flow cytometry (FACS analysis) (FIG. 4). Cells from five different lymphoma cell lines were treated for 24 hours with different concentrations of Compound 1 (FIG. 4A) or Compound 22 (FIG. 4B). Lymphoma cell lines treated were: SP49 (MCL with Notch4 GOF); Toledo (DLBCL); RC (Double Hit DLBCL—MYC, BCL2); SUDHL-4 (DLBCL); and SUDHL-6 (DLBCL). GSI concentrations were 0, 1 nM, 10 nM, 100 nM, 500 nM, 1000 nM, and 10000 nM.

DB cells (DLBCL) = assay: Soluble (shed) BCMA by ELISA
Experimental: (§4) […] cell lines, comprising 9 subtypes of lymphomas (see Table 1), were seeded at 1×10^5 cells/well in a total volume of 250 μl into a 96-well plate. The cells were cultured in RPMI medium supplemented with 10% FCS. Compound (22) was added to the cell cultures at a concentration of 10 μM, 1 μM, 100 nM, 10 nM, 1 nM, 100 pM, 10 pM, 1 pM, and 100 fM, and cell lines (8 from Hadassah Medical Center, 31 from Eurofins) were incubated at 37° C. for 24 hours with Compound (22). Following incubation, the cells were collected and BCMA levels were evaluated on the cell surface for cell-bound BCMA. Cells were stained with an anti-BCMA antibody (PE anti-human 19F2 BCMA, Biolegend), and cell surface BCMA levels were determined by FACS analysis (Mean Fluorescence Intensity. Soluble BCMA levels were analyzed by ELISA (Human BCMA/TNFRSF17 DuoSet kit: R&D Systems).

[3] = test system: MC-116 cells (B-cell Lymphoma); assay: Soluble (shed) BCMA by ELISA
Experimental: as §4

[4] = test system: Daudi cells (Burkitt's Lymphoma); assay: Soluble (shed) BCMA by ELISA
Experimental: as §4

[5] = test system: MHHH-PREB-1 cells (B-cell Lymphoma); assay: Soluble (shed) BCMA by ELISA
Experimental: as §4

[6] = test system: REC-1 cells (Mantle Cell Lymphoma); assay: Soluble (shed) BCMA by ELISA
Experimental: as §4

[7] = test system: CRO-AP2 cells (B-cell Lymphoma); assay: Soluble (shed) BCMA by ELISA
Experimental: as §4

[8] = test system: CA46 cells (Burkitt's Lymphoma); assay: Soluble (shed) BCMA by ELISA
Experimental: as §4

[9] = test system: U266 cells (MM cell line); assay: Soluble BCMA in cell media by ELISA; details: for BCMA shedding: MM cells (U266), cell-bound and soluble BCMA
Experimental: FIG. 3. Levels of soluble BCMA In cell media after Incubation of multiple myeloma (MM) cells with γ-secretase inhibitors (GSIs). U266 cells (MM cell line) were incubated with 0.3 nM, 1 nM, 3 nM and 10 nM of GSI (Compound 1, Compound 22, LY3039478 or PF3084014) for 24 hours, and BCMA levels were measured by ELISA.
as §1

[10] = test system: B-ALL cell lines RSV411, REH, 018Z; assay: Cell surface BCMA by FACS, B-ALL cell lines; details: up to 10 μM, 24 h
Experimental: as §2, §3
The effect of γ-secretase inhibitors on cell surface BCMA levels in Acute B-Cell Lymphoblastic Leukemia (B-ALL) cell lines was also observed using flow cytometry (FIG. 5). Cells from three different B-ALL cell lines were treated for 24 hours with different concentrations (0-10 μM) of GSIs (Compound 1 and Compound 22).

[11] = Homo sapiens, read-out: Shed BCMA (pg/ml) EC50

Cc1cccc2c1NC(=O)[C@@H](NC(=O)[C@H](CCC(F)(F)F)[C@H](CCC(F)(F)F)C(N)=O)N=C2c1cccc(F)c1 [Compound (22), (2R,3S)—N-((3S)-5-(3-fluorophenyl)-9-methyl-2-oxo-2,3-dihydro-1H-1,4-benzodiazepin-3-yl)-2,3-bis(3,3,3-trifluoropropyl)succinamide]
cell-bound BCMA levels [1]: increased cell-bound BCMA levels
effectiveness at increasing cell-bound BCMA compared with other GSIs [1]: as effective as LY3039478 and more effective than PF3084014
cell surface BCMA levels [2]: elevated BCMA levels
Shed BCMA (pg/ml) % Reduction (DB cells (DLBCL)): 100%
soluble BCMA 1 nM Compound (22) (DB cells (DLBCL); 1 nM, 24 h): 270.5
soluble BCMA 10 nM Compound (22) (DB cells (DLBCL); 10 nM, 24 h): 40.5
soluble BCMA (DB cells (DLBCL); FIG. 9B): decreased soluble BCMA
EC50 (DB cells (DLBCL); [11]): 1 nM
EC50 ([3]; Homo sapiens, MC116, MC-116, read-out: Shed BCMA (pg/ml) EC50): 6.5 nM
soluble BCMA 1 nM Compound (22) ([3]; MC116, 1 nM, 24 h): 1810.6
soluble BCMA 10 nM Compound (22) ([3]; MC116, 10 nM, 24 h): 414.8
soluble BCMA 100 nM Compound (22) ([3]; MC116, 100 nM, 24 h): 303.7
Shed BCMA (pg/ml) % Reduction ([3]; MC-116): 76%
Shed BCMA (pg/ml) % Reduction [4]: 100%
soluble BCMA 1 nM Compound (22) ([4]; 1 nM, 24 h): 162.6
soluble BCMA 10 nM Compound (22) ([4]; 10 nM, 24 h): 36.8
soluble BCMA ([4]; FIG. 7B): decreased soluble BCMA
EC50 [4, 11]: 0.5 nM
Shed BCMA (pg/ml) % Reduction [5]: 97%
soluble BCMA 1 nM Compound (22) ([5]; 1 nM, 24 h): 227.3
soluble BCMA 10 nM Compound (22) ([5]; 10 nM, 24 h): 75.4
soluble BCMA 100 nM Compound (22) ([5]; 100 nM, 24 h): 60.1
EC50 ([5]; Homo sapiens, B-cell, read-out: Shed BCMA (pg/ml) EC50): 0.6 nM
Shed BCMA (pg/ml) % Reduction [6]: BLQ
EC50 ([6]; Homo sapiens, Rec1, read-out: Shed BCMA (pg/ml) EC50): > 10000 nM
Shed BCMA (pg/ml) % Reduction [7]: 91%
soluble BCMA 1 nM Compound (22) ([7]; 1 nM, 24 h): 1895.3
soluble BCMA 10 nM Compound (22) ([7]; 10 nM, 24 h): 409.5
soluble BCMA 100 nM Compound (22) ([7]; 100 nM, 24 h): 126.1
EC50 [7, 11]: 4.8 nM
Shed BCMA (pg/ml) % Reduction ([8]; CA46): 90%
soluble BCMA 1 nM Compound (22) ([8]; CA-46, 1 nM, 24 h): 1775.4
soluble BCMA 10 nM Compound (22) ([8]; CA-46, 10 nM, 24 h): 330
soluble BCMA 100 nM Compound (22) ([8]; CA-46, 100 nM, 24 h): 173.2
EC50 ([8]; Homo sapiens, CA46, read-out: Shed BCMA (pg/ml) EC50): 7.4 nM
BCMA shedding [9]: inhibit BCMA shedding
potency in reducing soluble BCMA in cell media compared with other GSIs ([9]; U266, 24 h): more potent than Compound 1; also recorded: as potent as LY3039478; also recorded: more potent than PF3084014
BCMA expression [10]: did not affect BCMA expression

CN1C(=O)[C@@H](NC(=O)[C@H](CCC(F)(F)F)[C@H](CCC(F)(F)F)C(N)=O)N=C(c2ccccc2)c2ccccc21 [Compound 1, (2R,3S)—N-((3S)-1-methyl-2-oxo-5-phenyl-2,3-dihydro-1H-1,4-benzodiazepin-3-yl)-2,3-bis(3,3,3-trifluoropropyl)succinamide]
cell-bound BCMA levels [1]: increased cell-bound BCMA levels
effectiveness at increasing cell-bound BCMA compared with other GSIs [1]: as effective as LY3039478 and more effective than PF3084014
cell surface BCMA levels [2]: elevated BCMA levels
BCMA shedding [9]: inhibit BCMA shedding
BCMA expression [10]: did not affect BCMA expression
